According to patent US12605323B2, “Composition for inhibiting hair graying, and use thereof” (LG HOUSEHOLD & HEALTH CARE LTD., priority 2020, dated 2026):
Where no end group is shown, it is not given here.

Legend:
[1] = test system: Wnt/β-catenin signaling pathway (TCF/LEF Responsive Luciferase Reporter HEK293A cell line); test: Effect of enhancing Wnt/β-catenin signaling, TCF/LEF responsive luciferase reporter assay; format: cell-based; conditions: 10 μg/mL, 24 hours, WRHEK293A cells, non-treated control = 100%
Protocol: To determine activation of the Wnt/β-catenin signaling pathway, TCF/LEF Responsive Luciferase Reporter HEK293A stabilized cell line (Wnt Reporter HEK293A cell; WRHEK293A) was used in this test. The stabilized cell line was maintained through the subculture using MEM (Corning, USA) and fetal bovine serum (Gibco BRL, Gaithersburg, MD, USA). To carry out a transcriptional activity test, 30,000 cells were seeded per well in a 96-well plate and cultured in an incubator at 37° C. for 24 hours. Then, according to the present disclosure, treatment with each of escin, 27-deoxyactein, lysionotin, nitidine chloride, lanosterol, engeletin, specnuezhenide, praeruptorin B, rotundic acid, sesamoside, polygalacin D, momordin Ic, valechlorine, tussilagone, periplocin, polyphyllin VII and platycodin D2 was carried out as shown in the following Table 1. After culturing for 24 hours, a luciferase assay system (Promega) was used to perform reporter analysis. The analysis was carried out by the test method provided by the production company, and luminescence was determined by using Victor multiwall plate reader (PerkinElmer, USA). To determine cytotoxicity caused by the treatment, development of fluorescence of GFP as an internal control was determined. The luminescence value derived from the reaction with luciferase was divided by the GFP fluorescence value, and the values of the test group were calculated by taking the value of the non-treated control as 100% and expressed in the unit of percentage (%) (Table 1).

[2] = test system: B-16 mouse melanoma cells; test: Determination of effect of producing melanin; format: cell-based; conditions: B-16 melanoma cells; for Melanin synthesis (%): non-treated control = 100%
Protocol: In this test, the compounds in Test Example 1 showing an effect of enhancing the Wnt signaling were added to the culture medium of mouse-derived melanoma cells (B-16 mouse melanoma cells) to determine the effect of producing melanin in a cellular level (Lotan R., Lotan D. Cancer Res. 40: 3345-3350, 1980). Before the test, B-16 melanoma cells were evaluated in terms of toxicity, and the non-toxic concentration was selected to carry out evaluation of melanin production. B-16 melanoma cells were subcultured in DMEM (Gibco BRL., Gaithersburg, MD, USA) containing 10% FBS. Then, seeding to a 100 mm cell culture dish was performed to synthesize and extract melanin, and the cells were treated with each compound when the confluency was 70%. The compound was used for treating the cell culture at a concentration of 10 μg/mL. In addition, α-melanocyte stimulating hormone (α-MSH) was used as control, added to the culture medium to 10 nM to treat B-16 melanoma cells, and cultured for 48 hours. Then, the cells were treated with trypsin to strip them off the culture container, and centrifugal separation was carried out to extract melanin. After that, 1 mL of sodium hydroxide (1 N concentration) solution was added to the stripped cells and the mixture was boiled for 10 minutes so that melanin may be dissolved. The amount of melanin production was determined by measuring the absorbance at 400 nm by using a spectrophotometer. The amount of melanin was quantified in the unit of μg/mL by using a standard absorbance curve as a function of melanin concentration. The value of the non-treated control was taken as 100%, and the values of the test group were calculated as a percentage (%) on the basis thereof (Table 2).

| Compound | Wnt signaling activation capability (%) (Luminescence/GFP) [1] | Melanin synthesis (%) ([2]; 10 μg/mL) | melanin synthesis (FIG. 1) [2] | Melanin synthesis (%) ([2]; 10 nM, 48 hours) |
| --- | --- | --- | --- | --- |
| CC=C1[C@H](O[C@@H]2O[C@H](CO)[C@@H](O)[C@H](O)[C@H]2O)OC=C(C(=O)OC)[C@H]1CC(=O)OC[C@H]1O[C@@H](OCCc2ccc(O)cc2)[C@H](O)[C@@H](O)[C@@H]1O (stereo in doubt) [Specnuezhenide, specnuezhenide] | 243% | 106% | – | – |
| CC(=O)O[C@@H]1C[C@@]23C[C@@]24CC[C@H](O[C@@H]2OC[C@@H](O)[C@H](O)[C@H]2O)C(C)(C)[C@@H]4CC[C@H]3[C@]2(C)C[C@@H]3O[C@]4(C[C@@H](C)[C@@H]3[C@@]12C)OC[C@@]1(C)O[C@@H]41 [27-Deoxyactein, 27-deoxyactein] | 1717% | 168% | – | – |
| CC1OC(OC2C(=O)c3c(O)cc(O)cc3OC2c2ccc(O)cc2)C(O)C(O)C1O (stereo not drawn) [Engeletin, engeletin] | 223% | 121% | – | – |
| CC(C)=CCC[C@@H](C)[C@H]1CC[C@@]2(C)C3=C(CC[C@]12C)[C@@]1(C)CC[C@H](O)C(C)(C)[C@@H]1CC3 [Lanosterol, lanosterol] | 194% | 110% | – | – |
| COc1ccc(-c2cc(=O)c3c(O)c(OC)c(O)c(OC)c3o2)cc1 [Lysionotin, lysionotin] | 196% | 135% | – | – |
| CC1(C)CC[C@]2(C(=O)O)CC[C@]3(C)C(=CC[C@@H]4[C@@]5(C)CC[C@H](O[C@@H]6O[C@H](C(=O)O)[C@@H](O)[C@H](O[C@@H]7OC[C@@H](O)[C@H](O)[C@H]7O)[C@H]6O)C(C)(C)[C@@H]5CC[C@]43C)[C@@H]2C1 [Momordin Ic, momordin Ic] | 370% | 131% | – | – |
| COc1cc2c[n+](C)c3c4cc5c(cc4ccc3c2cc1OC)OCO5 [Nitidine chloride, nitidine chloride] | 274% | 125% | – | – |
| CO[C@H]1C[C@H](O[C@H]2CC[C@]3(C)[C@H]4CC[C@]5(C)[C@@H](C6=CC(=O)OC6)CC[C@]5(O)[C@@H]4CC[C@]3(O)C2)O[C@H](C)[C@H]1O[C@@H]1O[C@H](CO)[C@@H](O)[C@H](O)[C@H]1O [Periplocin, periplocin] | 244% | 128% | – | – |
| C[C@@H]1O[C@@H](O[C@H]2[C@H](OC(=O)[C@]34CCC(C)(C)C[C@H]3C3=CC[C@@H]5[C@@]6(C)C[C@H](O)[C@H](O[C@@H]7O[C@H](CO)[C@@H](O)[C@H](O[C@@H]8O[C@H](CO)[C@@H](O)[C@H](O)[C@H]8O)[C@H]7O)C(CO)(CO)[C@@H]6CC[C@@]5(C)[C@]3(C)C[C@H]4O)OC[C@H](O)[C@@H]2O)[C@H](O)[C@H](O)[C@H]1O[C@@H]1OC[C@@H](O)[C@H](O[C@@H]2OC[C@](O)(CO)[C@H]2O)[C@H]1O [Platycodin D2, platycodin D2] | 216% | 119% | – | – |
| C[C@@H]1O[C@@H](O[C@H]2[C@H](OC(=O)[C@]34CCC(C)(C)C[C@H]3C3=CC[C@@H]5[C@@]6(C)C[C@H](O)[C@H](O[C@@H]7O[C@H](CO)[C@@H](O)[C@H](O)[C@H]7O)[C@@](C)(CO)[C@@H]6CC[C@@]5(C)[C@]3(C)C[C@H]4O)OC[C@H](O)[C@@H]2O)[C@H](O)[C@H](O)[C@H]1O[C@@H]1OC[C@@H](O)[C@H](O[C@@H]2OC[C@](O)(CO)[C@H]2O)[C@H]1O [Polygalacin D, polygalacin D] | 292% | 114% | – | – |
| C/C=C(/C)C(=O)O[C@H]1c2c(ccc3ccc(=O)oc23)OC(C)(C)[C@H]1OC(=O)/C(C)=C\C [Praeruptorin B, praeruptorin B] | 241% | 136% | – | – |
| C[C@@H]1CC[C@]2(C(=O)O)CC[C@]3(C)C(=CC[C@@H]4[C@@]5(C)CC[C@H](O)[C@@](C)(CO)[C@@H]5CC[C@]43C)[C@@H]2[C@]1(C)O [Rotunic acid, rotundic acid] | 296% | 144% | – | – |
| COC(=O)C1=CO[C@@H](O[C@@H]2O[C@H](CO)[C@@H](O)[C@H](O)[C@H]2O)[C@@H]2[C@@]3(C)O[C@H]3[C@@H](O)[C@]12O [Sesamoside, sesamoside] | 275% | 112% | – | – |
| C=C1[C@H](OC(=O)/C=C(\C)CC)C[C@@H](C(C)C)[C@@H]2[C@@H]([C@@H](C)OC(C)=O)C(=O)C[C@@H]12 [Tussilagone, tussilagone] | 195% | 136% | – | – |
| escin | 1098% | 154% | increase in melanin synthesis | – |
| polyphyllin VII | 275% | 127% | – | – |
| valechlorine | 218% | 139% | – | – |
| α-melanocyte stimulating hormone (SYSMEHFRWGKPV; ends and bridges not checked; UniProt P01189 138-150, looked up) [α-MSH, α-melanocyte stimulating hormone used as control at 10 nM, reference compound] | – | – | – | 135% |
